Consider 25 molecules from patent US6242199A, “Assays for growth hormone secretagogue receptors” (Merck & Co., Inc., priority 1998, dated 2001).

For orientation: IC50 means the concentration that inhibits the measured activity by half.

Where no end group is shown, it is not given here.

For the first experiment, the target named is T1, growth hormone secretagogue receptor (GHSR), porcine anterior pituitary membranes (Sus scrofa, UniProt Q95254).
T1 construct: Frozen anterior pituitary glands from male swine (50-80 Kg); from tissue; host or cells: anterior pituitary glands of male swine (50-80 kg), crude membranes
T1 sequence (Q95254 whole entry): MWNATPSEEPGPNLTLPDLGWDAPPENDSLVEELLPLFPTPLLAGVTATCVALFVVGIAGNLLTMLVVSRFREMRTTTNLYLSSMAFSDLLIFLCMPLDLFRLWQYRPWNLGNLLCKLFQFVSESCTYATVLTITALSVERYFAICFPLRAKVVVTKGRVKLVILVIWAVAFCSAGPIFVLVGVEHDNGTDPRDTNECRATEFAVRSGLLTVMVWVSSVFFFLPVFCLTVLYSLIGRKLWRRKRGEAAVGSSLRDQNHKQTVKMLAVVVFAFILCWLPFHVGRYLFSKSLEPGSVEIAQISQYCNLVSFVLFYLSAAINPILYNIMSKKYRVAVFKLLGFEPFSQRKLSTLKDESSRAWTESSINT
Nature of the experiment: [35S]-Compound A radioreceptor binding, porcine anterior pituitary membranes.
Details: not given
Here is the method:
Frozen anterior pituitary glands from male swine (50-80 Kg) or from the Wistar male rats (150-200 g) were homogenized in a tissue homogenizer in ice-cold buffer (50 mM Tris-HCl buffer, pH 7.4, 5 mM MgCl2, 2.5 mM EDTA, 0.1% bovine serum albumin and 30 μg/ml bacitracin). The homogenates were centrifuged for 5 min at 1,400×g and the resulting supernatants were then centrifuged at 34,000×g for 20 min. The pellets were resuspended in same buffer to a 1,500 μg protein/ml and stored at -80° C. Protein was determined by a Bio-Rad method (Bio-Rad Laboratories, Richmond, Calif.).
Aliquots were incubated at 20° C. for 60 min and bound radioligand was separated from free by filtration through GF/C filters pretreated with 0.5% of polyethylenimine in a Brandel cell harvester. […] Assays were carried out in triplicate and experiments repeated at least three times.
With `Nc1nc2c(ncn2[C@@H]2O[C@H](COP(=O)(O)OP(=O)(O)OP(O)(O)=S)[C@@H](O)[C@H]2O)c(=O)[nH]1` [GTP-γ-S], the IC50 turned out to be 0.03 µM.

The same experiment, now with this note: 1 μM.
With `CC(C)NC[C@H](O)COc1cccc2ccccc12` (racemic) [propanolol], the “competition with [35S]-Compound A at 1 μM (in words)” value (shortened to “competition … at 1 μM (in words)”) is on record as “did not compete”.

For `Clc1cccc(Cl)c1N=C1NCCN1` [clonidine], the “competition … at 1 μM (in words)” value was “did not compete”.

Turning to somatostatin: hypothalamic hormone, the “competition … at 1 μM (in words)” value is on record as “did not compete”.

substance P: the “competition … at 1 μM (in words)” value was “did not compete”.

For the molecule met-enkephalin, the “competition … at 1 μM (in words)” value is given as “did not compete”.

With “PHM-27 (HADGVFTSDFSKLLGQLSAKKYLESLM; ends and bridges not checked; UniProt P01282 81-107, looked up)”, the “competition … at 1 μM (in words)” value is “did not compete”.

As for galanin, the “competition … at 1 μM (in words)” value is “did not compete”.

As for “gastrin releasing peptide (VPLPAGGGTVLTKMYPRGNHWAVGHLM; ends and bridges not checked; UniProt P07492 24-50, looked up)”, the “competition … at 1 μM (in words)” value is given as “did not compete”.

For `CC(C)C[C@H]1C(=O)N2CCC[C@H]2[C@]2(O)O[C@](NC(=O)[C@@H]3C=C4c5cccc6[nH]c(Br)c(c56)C[C@H]4N(C)C3)(C(C)C)C(=O)N12` [bromocriptine], the “competition … at 1 μM (in words)” value was “did not compete”.

On to `COc1cccc(OC)c1OCCNCC1CSc2ccccc2O1` (stereo not drawn) [benoxathian], for which the “competition … at 1 μM (in words)” value is listed as “did not compete”.

Turning to `CC(COc1ccccc1)N(CCCl)Cc1ccccc1` (stereo not drawn) [phenoxybenzamine], the “competition … at 1 μM (in words)” value is recorded as “did not compete”.

For melanocyte stimulating hormone, the “competition … at 1 μM (in words)” value is on record as “did not compete”.

Regarding “GHRH: hypothalamic hormone, growth hormone releasing factor”, the “competition … at 1 μM (in words)” value was “did not compete”.

Take “pituitary adenylate cyclase activating polypeptide-38”: the “competition … at 1 μM (in words)” value is “did not compete”.

For `COc1ccc(OC)c(C(O)C(C)N)c1` (stereo not drawn) [methoxamine], the “competition … at 1 μM (in words)” value is “did not compete”.

Consider `NC(=O)[C@@H]1CCCN1C(=O)[C@H](Cc1cnc[nH]1)NC(=O)[C@@H]1CCC(=O)N1` [thyrotropin releasing hormone], for which the “competition … at 1 μM (in words)” value was “did not compete”.

For gonadotropin releasing hormone, the “competition … at 1 μM (in words)” value was “did not compete”.

As for `CC(C)NCC(O)c1ccc(O)c(O)c1` (stereo not drawn) [isoproterenol], the “competition … at 1 μM (in words)” value is listed as “did not compete”.

Staying with this experiment, now noted: % of affinity of Compound A.
GHRP-6: the “affinity relative to that of Compound A” value is recorded as 3.8%.

In the case of `CC(C)(N)CC(=O)N[C@@H]1CCc2ccccc2N(Cc2ccc(-c3ccccc3-c3nn[nH]n3)cc2)C1=O` [Compound B], the “affinity relative to that of Compound A” value amounted to 0.4%.

The same experiment, now with this note: GTP analogs / nucleotides; FIG. 26; read-out: inhibition of [35S]-Compound A binding, IC50.
On to `Nc1nc2c(ncn2[C@@H]2O[C@H](COP(=O)(O)OP(=O)(O)NP(=O)(O)O)[C@@H](O)[C@H]2O)c(=O)[nH]1` [GMP-PNP], for which the IC50 was determined as 0.11 µM.

Staying with this experiment, now noted: double reciprocal plot of saturation isotherm; FIG. 25.
With GHRP-6, the “nature of competition with [35S]-Compound A (in words)” value was “interacts competitively with Compound A in the same binding site”.

Consider `CC(C)(N)CC(=O)N[C@@H]1CCc2ccccc2N(Cc2ccc(-c3ccccc3-c3nn[nH]n3)cc2)C1=O` [Compound B], for which the “nature of competition with [35S]-Compound A (in words)” value is “competitor of [^35 S]-Compound A binding”.

Still in this experiment, the particulars now being: nucleotides; FIG. 26.
Regarding `Nc1ncnc2c1ncn2[C@@H]1O[C@H](COP(=O)(O)OP(=O)(O)OP(O)(O)=S)[C@@H](O)[C@H]1O` [ATP-γ-S], the “effect on [35S]-Compound A binding (in words)” value is given as “ineffective”.

Staying with this experiment, now noted: unlabeled competitor; FIG. 24.
Consider `CC(C)(N)CC(=O)N[C@H]1CCc2ccccc2N(Cc2ccc(-c3ccccc3-c3nn[nH]n3)cc2)C1=O` [Compound C], for which the “displacement of / competition with [35S]-Compound A binding (in words)” value is “competed poorly”.

The next experiment deals with growth hormone secretagogue receptor (GHSR) of swine, native receptor of the anterior pituitary (swine) (UniProt Q95254). Nature of the experiment: competition with [35S]-Compound A on porcine anterior pituitary membranes, filtration.
Details: not given
For the molecule GHRP-6 (peptide), the affinity as percent of that of Compound A was determined as 3.8%.
